According to ChEMBL document CHEMBL5506017, “Brain-Permeable Immunoproteasome-Targeting Macrocyclic Peptide Epoxyketones for Alzheimer's Disease” (J Med Chem, 2024):

Key:
[1] = Toxicity in BALB/c mouse assessed as diarrhea at 100 mg/kg, po; type: organism-based; conditions: in vivo
[2] = C0 in BALB/c mouse at 40 mg/kg, iv measured upto 1440 mins by LC-MS/MS analysis; type: ADME, organism-based; conditions: in vivo, 24 h
[3] = Apparent permeability of the compound across apical to basolateral side in human Caco-2 cells expressing Pgp/BCRP at 10 uM incubated for 120 mins by LC-MS/MS analysis; type: ADME, cell-based; conditions: caco-2, 2 h
[4] = Toxicity in BALB/c mouse assessed as diarrhea at 40 mg/kg, iv; type: organism-based; conditions: in vivo
[5] = Oral bioavailability in BALB/c mouse at 150 mg/kg measured after 15 to 360 mins by LC-MS/MS analysis; type: ADME, organism-based; conditions: in vivo, time 15-360 min
[6] = Toxicity in BALB/c mouse assessed as effect on hair loss at 100 mg/kg, po; type: organism-based; conditions: in vivo
[7] = Drug uptake in BALB/c mouse brain at 40 mg/kg, iv measured after 2 hrs; type: ADME, organism-based; conditions: in vivo
[8] = Apparent permeability of the compound across basal to apical side in human Caco-2 cells expressing Pgp/BCRP at 10 uM incubated for 120 mins by LC-MS/MS analysis; type: ADME, cell-based; conditions: caco-2, 2 h
[9] = Cmax in BALB/c mouse at 150 mg/kg, po measured after 15 to 360 mins by LC-MS/MS analysis; type: ADME, organism-based; conditions: in vivo, time 15-360 min
[10] = Drug uptake in BALB/c mouse liver at 40 mg/kg, iv measured after 2 hrs; type: ADME, organism-based; conditions: in vivo
[11] = In vivo inhibition of LMP2 activity in BALB/c mouse blood at 40 mg/kg, iv measured after 2 hrs relative to control; type: functional
[12] = tested on: HMC3; assay: Cytotoxicity against human HMC3 cells assessed as reduction in cell viability at 30 to 100 uM incubated for 96 hrs by CellTiter 96 Aqueous One Solution Cell Proliferation Assay; type: toxicity, cell-based; conditions: hmc3, 96 h, dose 30-100 µM
[13] = Cmax in BALB/c mouse at 40 mg/kg, iv measured upto 1440 mins by LC-MS/MS analysis; type: ADME, organism-based; conditions: in vivo, 24 h
[14] = Mutagenicity in Salmonella typhimurium TA100 at 0.01 to 100 uM incubated for 90 mins in presence of liver S9 fraction by AMES test; type: toxicity, subcellular; conditions: salmonella enterica subsp. enterica serovar typhimurium, s9, 1.5 h, dose 0.01-100 µM
[15] = tested on: ARPE-19; assay: Cytotoxicity against human ARPE-19 cells assessed as reduction in cell viability at 30 to 100 uM incubated for 96 hrs by CellTiter 96 Aqueous One Solution Cell Proliferation Assay; type: toxicity, cell-based; conditions: arpe-19, 96 h, dose 30-100 µM
[16] = Half life in BALB/c mouse at 150 mg/kg, po measured after 15 to 360 mins by LC-MS/MS analysis; type: ADME, organism-based; conditions: in vivo, time 15-360 min

- C0 [2]: 31987 ng/mL
- Papp [3]: 6.62 10^-6 cm/s
- F [5]: 9.8%
- Drug uptake [7]: Active
- Papp [8]: 17.3 10^-6 cm/s
- Cmax [9]: 3630 ng/mL
- Drug uptake [10]: Active
- Cmax [13]: 25900 ng/mL
- t1/2 [16]: 47.5 min
Structure (SMILES): CC(C)C[C@H](NC(=O)[C@@H]1COCCCCCC(=O)N2C[C@H](F)C[C@H]2C(=O)N1)C(=O)[C@@]1(C)CO1
- Activity [1]: Non-Toxic
- Activity [4]: Non-Toxic
- Activity [6]: Non-Toxic
- inhibition in vivo at 40 mg/kg [11]: 100%
- Activity [12]: Non-Toxic
- Activity [14]: Non-Toxic
- Activity [15]: Non-Toxic
